Where “and” joins values, the source holds several entries; their conditions need not be identical. Equal values may be shown once. Calls of active or inactive are those of the source.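 Rule for the calls: active = compounds giving half or more protection of infected cells from virus-caused growth loss, again on retest; inactive = the rest.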
Tested on: CEM cells HIV-1 protection, formazan growth assay
Test: NCI AIDS Antiviral Assay
Details: for IC50: measured here: growth of uninfected CEM cells
In short: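 Protection of CEM cells against HIV-1 was scored from cell growth (soluble formazan) across five concentrations, with parallel uninfected cells. Lack of protection may reflect toxicity.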

SMILES	EC50	IC50 [µM]	outcome
CC1=NN(c2ccccc2)C(=O)C12[C@H](c1ccccc1)C2(C#N)C#N (stereo partly drawn)	> 21.9 µM	3.39	–
S=C(Nc1ccccn1)Nc1ccccn1	> 200 µM	195	–
O=S(=O)(/C=N\N=P(c1ccccc1)(c1ccccc1)c1ccccc1)c1ccccc1-c1ccccc1	> 200 µM	107	–
CN(C)P1(=O)OCC(C(C)(C)C)CN1c1ccccc1 (stereo not drawn)	> 200 µM	> 200	–
CNC(=O)OC(C)CN1c2ccccc2Sc2ccc(Cl)cc21 (stereo not drawn)	> 200 µM	26.9	–
C1=C\SS/C=C\SS/C=C\SS/C=C\SS/1	12.9 µM	15.1	–
CN1NC(C2NN(C)C(=O)N(C)N2)NN(C)C1=O	> 977 µM	33.1	–
CCn1c(O)c(C=Nc2ccccc2)s/c1=N/Nc1nc(C)c(C(C)=O)s1	> 200 µM	> 200	–
Cc1ccccc1N=C1SCC(=O)N1c1ccccc1C	141 µM	191	–
Nc1ccc2c(c1)C(=P(c1ccccc1)(c1ccccc1)c1ccccc1)c1ccccc1-2	> 200 µM	10.7	–
C#[N+]CCOP(=O)(OCC1OC(n2cc(C)c(=O)[nH]c2=O)CC1N=[N+]=[N-])O[C@H]1CC[C@@]2(C)C(=CC[C@H]3[C@@H]4CC[C@H](C(C)CCCC(C)C)[C@@]4(C)CC[C@@H]32)C1 (stereo partly drawn)	4.17 µM and 10 µM	> 200	–
Cn1c(NC(=O)NC23CC4CC(CC(C4)C2)C3)nc2ccccc21	> 200 µM	> 200	–
CCCCCCCCCCCCC1N=C(N)N2CCCC2=C1C(=O)OC (stereo not drawn)	> 200 µM	4.9	–
Cc1cccc2c(N)c3cccc(C(=O)NCC[N+]4(Cc5ccc([N+](=O)[O-])cc5)CCOCC4)c3nc12	> 200 µM	30.2	–
Cc1cccc(N(C(=O)Nc2ccc(Cl)c(Cl)c2)C2=NCC(C)S2)c1 (stereo not drawn)	> 200 µM	> 200	–
CCCCNc1cc(Nc2ccc(Br)cc2)nc(N)n1	> 2 µM	1.07	–
NC(F)(Cc1ccccc1)C(=O)O (stereo not drawn)	> 200 µM	> 200	–
C[N+](C)(CCO)CCN1c2ccccc2Sc2ccccc21	> 200 µM	> 200	–
O=C1/C(=C/c2cccc(F)c2)Cc2ccccc21	> 30.2 µM	> 30.2	–
CC(=O)c1ccccc1NS(=O)(=O)c1ccc2nc(C)n(NS(=O)(=O)c3ccccc3C(C)=O)c(=O)c2c1	> 200 µM	> 200	–
O=S(=O)(SSS(=O)(=O)c1ccc(Cl)c(Cl)c1)c1ccc(Cl)c(Cl)c1	> 53.7 µM	> 53.7	–

SMILES	EC50	IC50 [µM]	outcome
COc1ccc(N2C(=O)C3c4[nH]c5ccc(OCc6ccccc6)cc5c4C4CCC(C(C)C)CC4C3C2=O)cc1 (stereo not drawn)	> 100 µM	> 100	–
CC(N1CCS(=O)(=O)CC1)P(=O)(O)O (stereo not drawn)	> 200 µM	> 200	–
CCC(C)NC(=S)N/N=C(\C)c1ccccn1 (stereo not drawn)	> 0.2 µM	0.0158	–
O=C1c2ccccc2Sc2ccccc2N1CCCN1CCN(c2ccc(F)cc2)CC1	> 200 µM	33.9	–
CCC(C)C(=O)c1c(O)c(CC=C(C)C)c2c3c(cc(=O)oc13)C(CC)O2 (stereo not drawn)	> 200 µM	25.1	–
COc1ccc(OCC(=O)O)c2c1CCCC2=O	–	–	inactive
CCc1ccc(/C(C)=N/NC(N)=S)cc1	–	–	inactive
CC[P+](c1ccccc1)(N(C)C)N(C)C	> 200 µM	112	–
COc1cc(C(c2cccc3ccccc23)N2C(=O)CCC2C(=O)NCc2ccccc2)cc(OC)c1OC (stereo not drawn)	> 200 µM	> 200	–
COc1cc2[nH]c(=O)[nH]c2c2c(C)c[nH]c12	> 200 µM	> 200	–
COc1ccc(NC(=O)CC(=O)n2nc(-c3ccccc3)c(N=Nc3ccc(C)cc3)c2-c2ccccc2)cc1	> 9.77 µM	> 9.77	–
CCCN(CCC)C(=O)COc1cc2c(O)c3c(O)c(C)c4c(c13)C(=O)C(C)(O/C=C/C(OC)C(C)C(OC(C)=O)C(C)C(O)C(C)C(O)C(C)/C=C/C=C(\C)C(=O)N2)O4 (stereo not drawn)	–	–	inactive
O=C1c2ccccc2C(=O)c2c1ccc1conc21	–	–	inactive
O=[N+]([O-])C(=C1Nc2ccccc2N1)C(Cl)=C(Cl)Cl	> 200 µM	105	–
Cc1cc(NS(=O)(=O)c2ccc(NC(=O)c3cccc4c(Nc5ccc(S(=O)(=O)Nc6cc(C)on6)cc5)c5ccc(Cl)cc5nc34)cc2)no1	> 240 µM	135	–
Nc1ncnc2c1ncn2C1CC(CO)CO1 (stereo not drawn)	209 µM	214	–
Cc1c2c(cn1C)NC(=O)CN=C2c1ccccc1	> 200 µM	> 200	–
CCC1=NC(N/N=C/c2ccccc2O)=N/C1=C\c1ccccc1O	> 50.1 µM	9.12	–
COc1cc2c(cc1OC)C1CC(=O)C(CCCCCCC3CN4CCc5cc(OC)c(OC)cc5C4CC3=O)CN1CC2 (stereo not drawn)	–	–	inactive
COc1ccc(OC)c(C(O)C(C)NC(C)(C)C)c1 (stereo not drawn)	> 200 µM	> 200	–
Cc1ccc(-c2n[nH]c(=O)n2N2C(=O)C=CC2=O)cc1	49 µM	501	–

SMILES	EC50	IC50 [µM]	outcome
Cn1c(=O)c2nc3n(c2n(C)c1=O)C(=O)C(C#N)N=N3 (stereo not drawn)	> 200 µM	> 200	–
COc1cc(C(c2cccc3ccccc23)N2C(=O)CCC2C(=O)O)cc(OC)c1OC (stereo not drawn)	> 200 µM	> 200	–
COc1cccc(C=C(C#N)C#N)c1	> 708 µM	115	–
CC(C)N(C(C)C)[PH+]1O[PH+](N(C(C)C)C(C)C)O[PH+](N(C(C)C)C(C)C)O[PH+](N(C(C)C)C(C)C)O[PH+](N(C(C)C)C(C)C)O1.[C-]#[O+].[C-]#[O+].[C-]#[O+].[C-]#[O+].[C-]#[O+].[C-]#[O+].[C-]#[O+].[Cr].[Cr] (stereo not drawn)	> 25.1 µM	> 25.1	–
CCCCN(CCCC)CCCOC(=O)c1ccc2oc3ccc(C(=O)OCCCN(CCCC)CCCC)cc3c2c1	> 38.9 µM	10.5	–
N#CCC(=O)N/N=C\c1ccc2c(c1)OCO2	> 200 µM	> 200	–
CCOc1ccc(O)cc1[P+](c1ccccc1)(c1ccccc1)c1ccccc1	–	–	inactive
CN(c1ccc(Cl)cc1)S(=O)(=O)c1ccc([N+](=O)[O-])cc1	> 200 µM	> 200	–
Cn1cccc1/C=N/N=C(/N)NO	–	–	inactive
CCCCSCc1nc2ccccc2c(C)[n+]1[O-]	234 µM	437	–
CCOC(=O)C(NC(=O)CC)(Nc1ccc(S(=O)(=O)Nc2onc(C)c2C)cc1)C(F)(F)F (stereo not drawn)	> 200 µM	> 200	–
CC(=O)OC1SC(c2c(F)cccc2F)n2c1nc1ccccc12 (stereo not drawn)	38 µM	126	–
COC(=O)CN(CC(=O)OC)S(=O)(=O)c1ccc(-c2c3nc(c(-c4ccc(S(=O)(=O)N(CC(=O)OC)CC(=O)OC)cc4)c4ccc([nH]4)c(-c4ccc(S(=O)(=O)N(CC(=O)OC)CC(=O)OC)cc4)c4nc(c(-c5ccc(S(=O)(=O)N(CC(=O)OC)CC(=O)OC)cc5)c5ccc2[nH]5)C=C4)C=C3)cc1	> 100 µM	> 100	–
Oc1cc(C2OCCCO2)cc(O)c1O	> 229 µM	191	–
CC1=NN(C(=O)c2ccccc2Br)C(=O)C1N=Nc1ccccc1C(=O)O (stereo not drawn)	–	–	inactive
COc1ccc(/C(=N/Nc2nc3ccccc3n2Cc2ccccc2)C(=O)O)cc1	> 200 µM	4.27	–
O=c1[nH]c(=O)c2c([nH]1)[nH]c1ccccc12	> 200 µM	> 200	–
NC1=N[C@H]2CS[C@@H](CCCCC(=O)ON3C(=O)CCC3=O)[C@H]2N1	> 589 µM	> 589	–
CC1(C)/C(=N\NC(N)=O)C2CCC1C2 (stereo not drawn)	> 200 µM	> 200	–
COC(=O)c1c(/C(=N/Nc2ccc([N+](=O)[O-])cc2)[N+](=O)[O-])ssc1=N	> 200 µM	10	–
Cc1ccc(C2=C(c3ccccc3)C(O)(c3ccc(C)cc3)C(c3ccccc3)=C2c2ccc(C)cc2)cc1	> 5.13 µM	> 5.13	–

SMILES	EC50	IC50 [µM]	outcome
O=C(O)C[C@@H](Cl)[C@H](NC(=O)OCc1ccccc1)C(=O)O	–	–	inactive
C/C(CC(=O)Nc1cccc(Cl)c1C)=N\NC(=O)c1ccncc1	> 275 µM	129	–
CC1SC2=NC3=C(c4ccccc4C3=O)C(c3ccc(Cl)cc3)N2C1=O (stereo not drawn)	> 35.5 µM	> 35.5	–
CCOC(=O)c1c(Br)c(-c2ccc([N+](=O)[O-])cc2)c(Br)n1C	> 200 µM	39.8	–
O=C1CSC(c2c[nH]c3ccccc23)N1c1cccc(Cl)c1 (stereo not drawn)	> 21.9 µM	> 21.9	–
CC1=CC(O)CC(C)(C)C1/C=C/C(C)=C/C=C/C(C)=C/C=C/C=C(C)/C=C/C=C(C)/C=C/C1=C(C)CC(O)CC1(C)C (stereo not drawn)	> 200 µM	33.9	–
C=C1c2nc3ccccc3n2C=C(c2ccccc2)N1c1ccc(OC)cc1	> 200 µM	12.9	–
CC1(C)CC(=O)C(/C=N/C(=S)NCCc2ccccc2)=C(O)C1	> 200 µM	> 200	–
Nc1ccc(SCc2ccc(C(=O)O)cc2)cc1	> 28.2 µM	> 28.2	–
Oc1cc(O)c2c(c1)OC(c1ccc(O)c(O)c1)C(O)[C@H]2c1c(O)cc(O)c2c1OC(c1ccc(O)c(O)c1)C(O)C2 (stereo partly drawn)	> 200 µM	110	–
COC1(OC)CC(CO)(CNc2nc(N)nc(Cl)c2/C=N\O)C1	> 200 µM	2.69	–
O=C1CCC(=O)Nc2ccccc2-c2ccccc2N1	–	–	inactive
Cc1ccc2c(c1)[nH]c(=S)n2/C=C1\C(=O)Oc2ccccc2C1=O	> 200 µM	36.3	–
O=S(=O)(Nc1nc2ccccc2n1S(=O)(=O)c1ccccc1)c1ccccc1	81.3 µM	97.7	–
COC/N=C(\NC#N)NCOC	> 525 µM	> 525	–
O=C1c2ccccc2C(=O)c2sc(Nc3ccccc3C(F)(F)F)nc21	> 200 µM	11	–
CCCCn1c(-c2ccccc2)cs/c1=N\N=C1C=C(C(C)(C)C)C(=O)C(C(C)(C)C)=C1	> 15.8 µM	> 15.8	–
O=C(NNC(=O)c1cccc(C(=O)NNC(=O)c2ccc(Cl)c(Cl)c2)n1)c1ccc(Cl)c(Cl)c1	> 200 µM	1.07	–
COc1c(O)ccc2oc3cc(O)cc(O)c3c(=O)c12	> 200 µM	145	–
O=C(O)c1nc2ccccc2nc1NCc1ccc(F)cc1	> 200 µM	56.2	–
CCN(CC)C(=S)SSC(=S)N(CC)CC	> 200 µM	44.7	–
